Data as given in publication PMC10669656, “ADMET and Solubility Analysis of New 5-Nitroisatine-Based Inhibitors of CDK2 Enzymes” (Biomedicines, 2023).

Experiment: PARIS III toxicological and environmental analysis of solvents (HTPI, EI)
Design: species or system human
Conditions: binary solvent with water
Excerpt: The examined chemical compounds are 2-trifluoromethyl-N′-[5-nitro-2-oxo-1,2-dihydro-3H-indol-3-ylidene]benzohydrazide (1), 3-Amino-N′-[5-nitro-2-oxo-1,2-dihydro-3H-indol-3-ylidene]benzohydrazide (2), and 3-nitro-N′-[5-nitro-2-oxo-1,2-dihydro-3H-indol-3-ylidene]benzohydrazide (3). The evaluation of the descriptors defining molecular properties, absorption, metabolism, and toxicity of considered drugs was estimated with the use of ADMETlab 2.0 [9]. The quantitative structure–activity relationship (QSAR) algorithms implemented in used software based on the chemical structures of considered drugs described by SMILES definitions are presented in Figure 1. The method of interpretation and definitions of particular descriptors obtained during the analysis are included in the Results and Discussion sections. The toxicological analysis of solvents was realized with the use of the Solvent Substitution Software Tool, PARIS III [40, 41]. The characteristics of the Human Toxicity Potential by Ingestion (HTPI) of individual solvents and sets of binary solvents analyzed in this work were obtained based on the values of LD50 for particular solvents.
Additionally, the values of the Environmental Index (EI) were also estimated based on a set of eight environmental impact scores, which included, among others, HTPI, terrestrial toxicity potential, and aquatic toxicity potential. In the case of Equation (2), the σj is the weight for considered impact j, the φi,j stands for the value of normalized impact for considered solvent. (2) EIi=∑j=18σjφi,j¯

For C[S+](C)[O-] [DMSO, dimethyl sulfoxide], the “% HTPI x1.0 (relative to the pure organic solvent)” value (x* 0.1) was 37.7%, the “% HTPI x1.0 (relative to the pure organic solvent)” value (x* 0.2) was 55.8% and the “% HTPI x1.0 (relative to the pure organic solvent)” value (x* 0.3) was 67.8%. For the same compound, the “% HTPI x1.0 (relative to the pure organic solvent)” value (x* 0.4) was 76.4%, the “% HTPI x1.0 (relative to the pure organic solvent)” value (x* 0.5) was 83.1% and the “% HTPI x1.0 (relative to the pure organic solvent)” value (x* 0.6) was 87.7%. The “% HTPI x1.0 (relative to the pure organic solvent)” value (x* 0.7) was 91.5%, the “% HTPI x1.0 (relative to the pure organic solvent)” value (x* 0.8) was 95.4% and the “% HTPI x1.0 (relative to the pure organic solvent)” value (x* 0.9) was 97.7%. The “% HTPI x1.0 (relative to the pure organic solvent)” value (x* 1.0) was 100.0%.
For CN1CCCC1=O [NMP, N-methyl-2-pyrrolidone], the “% HTPI x1.0 (relative to the pure organic solvent)” value (x* 0.1) was 39.1%, the “% HTPI x1.0 (relative to the pure organic solvent)” value (x* 0.2) was 58.8% and the “% HTPI x1.0 (relative to the pure organic solvent)” value (x* 0.3) was 70.8%. For the same compound, the “% HTPI x1.0 (relative to the pure organic solvent)” value (x* 0.4) was 79.1%, the “% HTPI x1.0 (relative to the pure organic solvent)” value (x* 0.5) was 84.9% and the “% HTPI x1.0 (relative to the pure organic solvent)” value (x* 0.6) was 89.4%. The “% HTPI x1.0 (relative to the pure organic solvent)” value (x* 0.7) was 93.0%, the “% HTPI x1.0 (relative to the pure organic solvent)” value (x* 0.8) was 95.9% and the “% HTPI x1.0 (relative to the pure organic solvent)” value (x* 0.9) was 98.1%. The “% HTPI x1.0 (relative to the pure organic solvent)” value (x* 1.0) was 100.0%.
